# Patent publication US10155021B2, “Antimicrobial 4-oxoquinolizines” (Emergent Product Development Gaithersburg Inc., priority 2011, dated 2018)
# Like-named read-outs stand apart in the source and are kept apart here.
# Experiments:
# [1] = tested on: K. pneumoniae BAA-2146 (NDM-1, FQ-R); assay: MIC on K. pneumoniae (Example 5); type: cell-based; conditions: Klebsiella pneumoniae, BAA2146, read-out: MIC K. pneumoniae BAA-2146 (NDM-1, FQ-R)
# Procedure: MIC Values for all compounds were measured against a selection of bacterial strains. The MICs of 4-oxoquinolizines against a selection of Gram-negative and Gram-positive bacterial strains are shown in Table 13 in comparison with known antibiotics.
# A. baumannii A329 = assay: MIC without and with sub-inhibitory polymyxin B (Example 4); type: cell-based, Acinetobacter baumannii; conditions: Acinetobacter baumannii, A329, A. baumannii A329; without polymyxin B; 2nd experiment; visual reading; read-out: MIC without PB
# [2] = tested on: Acinetobacter spp. H064200250; assay: MIC determination for Acinetobacter strains (Example 3); type: cell-based, Acinetobacter sp.; conditions: LEV R, CIP R, MRP R, IMP I
# Klebsiella ssp KPC-3 = assay: MIC, panel of quinolone-resistant strains (CLSI); type: cell-based, Klebsiella spp; conditions: KPC3, CIP R, ESBL
# E. coli IMP = assay: microbe, parasite or virus in culture; conditions: Escherichia coli, read-out: MIC E. coli IMP
# A. baumannii A489 = assay: MIC without and with sub-inhibitory polymyxin B (Example 4); type: cell-based, Acinetobacter baumannii; conditions: Acinetobacter baumannii, A489, A. baumannii A489; without polymyxin B; 2nd experiment; visual reading; read-out: MIC without PB
# S. pneumoniae 1027 = assay: MIC, panel of quinolone-resistant strains (CLSI); type: cell-based; conditions: Streptococcus pneumoniae, LEV R
# E. coli 25922 = assay: MIC, standard panel of Gram-positive and Gram-negative bacteria (CLSI); type: cell-based, Escherichia coli; conditions: Escherichia coli, 25922; CAMHB; read-out: MIC E. coli 25922
# B. anthracis = assay: microbe, parasite or virus in culture; type: cell-based; conditions: Bacillus anthracis, read-out: MIC B. anthracis
# F. tularensis = assay: microbe, parasite or virus in culture; type: cell-based; conditions: Francisella tularensis, read-out: MIC F. tularensis
# E. coli CTX-M-15 = assay: MIC, panel of quinolone-resistant strains (CLSI); type: cell-based; conditions: Escherichia coli, CTXM15; CIP R, ESBL
# A. baumannii A473 [3] = assay: MIC determination for Acinetobacter strains (Example 3); type: cell-based; conditions: LEV R, CIP R, MRP R, IMP R, AMK R, TET R
# E. coli 2906 = assay: MIC, panel of quinolone-resistant strains (CLSI); type: cell-based; conditions: Escherichia coli, CIP R
# A. baumannii ATCC 19606 = assay: Preliminary MBC without and with sub-inhibitory polymyxin B (Example 4); type: cell-based, Acinetobacter baumannii; conditions: Acinetobacter baumannii, ATCC19606, read-out: MBC without PB
# P. aeruginosa 143-3-03 = assay: MIC, panel of quinolone-resistant strains (CLSI); type: cell-based; conditions: Pseudomonas aeruginosa, 143303; CIP I, POL R
# A. baumannii A401 = assay: MIC without and with sub-inhibitory polymyxin B (Example 4); type: cell-based, Acinetobacter baumannii; conditions: Acinetobacter baumannii, A401, A baumannii A 401; without polymyxin B; 2nd experiment; visual reading; read-out: MIC without PB
# A. baumannii J2 [4] = assay: MIC determination for Acinetobacter strains (Example 3); type: cell-based; conditions: LEV R, CIP R
# A. baumannii A390 [5] = assay: MIC without and with sub-inhibitory polymyxin B (Example 4); type: cell-based, Acinetobacter baumannii; conditions: Acinetobacter baumannii, A390, A. baumannii A390, without polymyxin B, read-out: MIC without PB
# A. baumannii J2 [6] = assay: as above; type: cell-based, Acinetobacter baumannii; conditions: Acinetobacter baumannii, J2, A. baumannii J2; without polymyxin B; 1st experiment; read-out: MIC without PB
# B. pseudomallei = assay: microbe, parasite or virus in culture; type: cell-based; conditions: Burkholderia pseudomallei, read-out: MIC B. pseudomallei
# A. baumannii A473 [7] = assay: MIC without and with sub-inhibitory polymyxin B (Example 4); type: cell-based, Acinetobacter baumannii; conditions: Acinetobacter baumannii, A473, A. baumannii A473, without polymyxin B, read-out: MIC without PB
# E. faecium 19434 = assay: MIC, standard panel of Gram-positive and Gram-negative bacteria (CLSI); type: cell-based, Enterococcus faecium; conditions: Enterococcus faecium, 19434; CAMHB; read-out: MIC E. faecium 19434
# [8] = tested on: Acinetobacter sp. (H064200250); assay: MIC without and with sub-inhibitory polymyxin B (Example 4); type: cell-based; conditions: Acinetobacter, without polymyxin B, read-out: MIC without PB
# A. baumannii A472 [9] = assay: as above; type: cell-based, Acinetobacter baumannii; conditions: Acinetobacter baumannii, A472, A. baumannii A472; without polymyxin B; 1st experiment; read-out: MIC without PB
# [10] = tested on: resistant strains of A. baumannii and one strain of Acinetobacter sp.; assay: MIC without and with sub-inhibitory polymyxin B, whole panel / MIC ranges (Example 4; also strains not listed separately); type: cell-based; conditions: Acinetobacter baumannii
# B. thailandensis = assay: microbe, parasite or virus in culture; type: cell-based, Burkholderia thailandensis; conditions: Burkholderia thailandensis, read-out: MIC90 B. thailandensis
# Pseudomonas ssp PER-1 = assay: MIC, panel of quinolone-resistant strains (CLSI); type: cell-based, Pseudomonas spp; conditions: PER1, CIP R, ESBL
# P. aeruginosa 1388-3-02 = assay: MIC, panel of quinolone-resistant strains (CLSI); type: cell-based; conditions: Pseudomonas aeruginosa, 1388302; CIP R, POL R
# [11] = tested on: Acinetobacter sp. (H064200250); assay: Preliminary MBC without and with sub-inhibitory polymyxin B (Example 4); type: cell-based; conditions: Acinetobacter, without polymyxin B, preliminary MBC, read-out: MBC without PB
# Method in brief: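 Incubation 18-20 h, 37° C. MBC = lowest conc. with ~90% fewer colonies than positive control (single/no colonies).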
# B. abortus = assay: microbe, parasite or virus in culture; type: cell-based; conditions: Brucella abortus, read-out: MIC B. abortus
# A. Baumanii OXA-51 = assay: MIC, panel of quinolone-resistant strains (CLSI); type: cell-based; conditions: Acinetobacter baumannii; CIP R, ESBL
# S. aureus 101 = assay: MIC, standard panel of Gram-positive and Gram-negative bacteria (CLSI); type: cell-based, Staphylococcus aureus; conditions: Staphylococcus aureus, 101; CAMHB; read-out: MIC S. aureus 101
# A. baumannii A390 [12] = assay: MIC determination for Acinetobacter strains (Example 3); type: cell-based; conditions: LEV R, CIP R, MRP R, IPM I, AMK R, TET I
# A. baumannii A472 [13] = assay: as above; type: cell-based; conditions: LEV R, CIP R, MRP I, IMP I, AMK R, TET R
# [14] = Acinetobacter spp. H064200250, 1st experiment
structure (smiles),measurement,setting,value
"Cc1c(-c2ccc3[nH]ncc3c2)ccn2c(=O)c(C(=O)[O-])cc(C3CC3)c12.[K+] [Compound 35 K salt, potassium 8-(1H-indazol-5-yl)-1-cyclopropyl-9-methyl-4-oxo-4H-quinolizine-3-carboxylate]",MIC,[1],> 8 µg/mL
"Cc1c(-c2cc(F)c(N)cc2F)ccn2c(=O)c(C(=O)[O-])cc(C3CC3)c12.[K+] [Compound 2 K salt, Potassium 8-(4-amino-2,5-difluoro-phenyl)-1-cyclopropyl-9-methyl-4-oxo-4H-quinolizine-3-carboxylate]",MIC,[1],> 8 µg/mL
"Cc1c(-c2ccc(CN)cc2)ccn2c(=O)c(C(=O)O)cc(C3CC3)c12 [Compound 5, 8-(4-aminomethyl-phenyl)-1-cyclopropyl-9-methyl-4-oxo-quinolizine-3-carboxylic acid]",MIC,A. baumannii A329,8 µg/mL
same,MIC,[2],16 µg/mL
same,MIC,Klebsiella ssp KPC-3,8 µg/mL
same,MIC,E. coli IMP,< 0.008 µg/mL
same,MIC,A. baumannii A489,8 µg/mL
same,MIC,S. pneumoniae 1027,2 µg/mL
same,MIC,E. coli 25922,< 0.03 µg/mL
same,MIC,B. anthracis,0.125 µg/mL
same,MIC,F. tularensis,0.125 µg/mL
same,MIC,E. coli CTX-M-15,16 µg/mL
same,MIC,A. baumannii A473 [3],8 µg/mL
same,MIC,E. coli 2906,16 µg/mL
same,MBC,A. baumannii ATCC 19606,0.125 µg/mL
same,MIC,P. aeruginosa 143-3-03,4 µg/mL
same,MIC,A. baumannii A401,8 µg/mL
same,MIC,A. baumannii J2 [4],8 µg/mL
same,MIC,A. baumannii A390 [5]; 1st experiment,8 µg/mL
same,MIC,"A. baumannii A390 [5]; 2nd experiment, visual reading",8 µg/mL
same,MIC,A. baumannii J2 [6],8 µg/mL
same,MIC,B. pseudomallei,2 µg/mL
same,MIC,A. baumannii A473 [7]; 1st experiment,8 µg/mL
same,MIC,"A. baumannii A473 [7]; 2nd experiment, visual reading",8 µg/mL
same,MIC,E. faecium 19434,2 µg/mL
same,MIC,"[8]; Acinetobacter spp. H064200250 (OXA51), 2nd experiment, visual reading",16 µg/mL
same,MIC,[8]; [14],16 µg/mL
same,MIC,A. baumannii A472 [9],8 µg/mL
same,MIC,"[10]; A. baumannii A14, without polymyxin B, 1st experiment, read-out: MIC without PB",32 µg/mL
same,MIC,"[10]; NCTC13301, A. baumannii NCTC 13301, without polymyxin B, 2nd experiment, visual reading, read-out: MIC without PB",8 µg/mL
same,MIC,"[10]; read-out: MIC range without PB 01-10-2008 n = 8, without polymyxin B, 1st experiment, 8 strains",2 to 32 µg/mL
same,MIC,"[10]; without polymyxin B, 2nd experiment, 11 strains, read-out: MIC range without PB 14-10-2008 n = 11",4 to 16 µg/mL
same,MIC90,B. thailandensis,0.39 µg/mL
same,MIC,Pseudomonas ssp PER-1,8 µg/mL
same,MIC,P. aeruginosa 1388-3-02,16 µg/mL
same,MBC,"[11]; Acinetobacter spp. H064200250 (OXA51), 2nd experiment",16 µg/mL
same,MBC,[11]; [14],8 µg/mL
same,MIC,B. abortus,1 µg/mL
same,MIC,A. Baumanii OXA-51,8 µg/mL
same,MIC,S. aureus 101,4 µg/mL
same,MIC,A. baumannii A390 [12],8 µg/mL
same,MIC,A. baumannii A472 [13],8 µg/mL
